Reference: ChEMBL document CHEMBL4387706, “Discovery of Novel Spiroindoline Derivatives as Selective Tankyrase Inhibitors” (J Med Chem, 2019)
≈ marks a conversion by molar mass, not a printed value.

Tests used:
[1] = molecular target: T1, Poly [ADP-ribose] polymerase tankyrase-1 (Homo sapiens, UniProt O95271)
T1 sequence (O95271 whole entry): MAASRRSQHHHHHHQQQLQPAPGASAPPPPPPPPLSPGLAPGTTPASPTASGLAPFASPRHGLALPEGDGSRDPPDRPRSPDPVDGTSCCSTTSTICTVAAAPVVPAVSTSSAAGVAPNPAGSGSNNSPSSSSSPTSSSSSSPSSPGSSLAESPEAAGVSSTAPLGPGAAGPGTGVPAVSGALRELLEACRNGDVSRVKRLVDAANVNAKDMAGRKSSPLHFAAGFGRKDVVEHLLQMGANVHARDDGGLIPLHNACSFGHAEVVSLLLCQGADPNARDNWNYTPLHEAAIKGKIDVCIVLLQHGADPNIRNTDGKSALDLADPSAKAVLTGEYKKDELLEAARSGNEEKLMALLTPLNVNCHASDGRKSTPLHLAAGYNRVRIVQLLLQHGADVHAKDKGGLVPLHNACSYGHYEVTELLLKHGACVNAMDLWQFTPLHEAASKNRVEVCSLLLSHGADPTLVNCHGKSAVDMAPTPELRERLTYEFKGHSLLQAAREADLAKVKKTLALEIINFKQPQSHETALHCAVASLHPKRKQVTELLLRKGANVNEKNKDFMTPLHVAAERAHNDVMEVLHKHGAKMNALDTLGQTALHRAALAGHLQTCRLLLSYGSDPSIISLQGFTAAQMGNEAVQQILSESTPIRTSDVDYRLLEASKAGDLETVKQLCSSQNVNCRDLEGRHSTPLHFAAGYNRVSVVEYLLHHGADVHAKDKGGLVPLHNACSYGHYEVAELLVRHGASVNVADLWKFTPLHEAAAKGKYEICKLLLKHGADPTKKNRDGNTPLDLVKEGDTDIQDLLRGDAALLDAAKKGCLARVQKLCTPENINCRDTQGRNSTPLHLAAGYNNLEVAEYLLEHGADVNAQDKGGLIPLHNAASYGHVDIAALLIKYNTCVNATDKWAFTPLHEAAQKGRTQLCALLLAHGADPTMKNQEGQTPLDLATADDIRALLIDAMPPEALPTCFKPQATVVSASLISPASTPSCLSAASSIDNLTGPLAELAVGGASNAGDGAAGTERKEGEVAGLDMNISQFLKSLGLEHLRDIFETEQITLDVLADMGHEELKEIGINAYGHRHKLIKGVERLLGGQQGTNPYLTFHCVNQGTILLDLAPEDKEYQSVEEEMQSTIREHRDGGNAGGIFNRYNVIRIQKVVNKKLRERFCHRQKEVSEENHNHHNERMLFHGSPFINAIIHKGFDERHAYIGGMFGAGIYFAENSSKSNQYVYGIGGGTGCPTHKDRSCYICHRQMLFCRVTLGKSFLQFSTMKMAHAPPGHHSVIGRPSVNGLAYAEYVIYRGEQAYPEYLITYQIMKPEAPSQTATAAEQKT
Description: Inhibition of recombinant human N-terminal TEV cleavage site-fused/FLAG-poly his-tagged TNKS SAM-PARP domain (1024 to 1327 residues) expressed in Escherichia coli assessed as reduction in auto-PARylation preincubated for 10 mins followed by biotinylated-NAD+ addition and measured after 45 mins by ELISA

[2] = molecular target: T2, Poly [ADP-ribose] polymerase tankyrase-2 (Homo sapiens, UniProt Q9H2K2)
T2 sequence (Q9H2K2 whole entry): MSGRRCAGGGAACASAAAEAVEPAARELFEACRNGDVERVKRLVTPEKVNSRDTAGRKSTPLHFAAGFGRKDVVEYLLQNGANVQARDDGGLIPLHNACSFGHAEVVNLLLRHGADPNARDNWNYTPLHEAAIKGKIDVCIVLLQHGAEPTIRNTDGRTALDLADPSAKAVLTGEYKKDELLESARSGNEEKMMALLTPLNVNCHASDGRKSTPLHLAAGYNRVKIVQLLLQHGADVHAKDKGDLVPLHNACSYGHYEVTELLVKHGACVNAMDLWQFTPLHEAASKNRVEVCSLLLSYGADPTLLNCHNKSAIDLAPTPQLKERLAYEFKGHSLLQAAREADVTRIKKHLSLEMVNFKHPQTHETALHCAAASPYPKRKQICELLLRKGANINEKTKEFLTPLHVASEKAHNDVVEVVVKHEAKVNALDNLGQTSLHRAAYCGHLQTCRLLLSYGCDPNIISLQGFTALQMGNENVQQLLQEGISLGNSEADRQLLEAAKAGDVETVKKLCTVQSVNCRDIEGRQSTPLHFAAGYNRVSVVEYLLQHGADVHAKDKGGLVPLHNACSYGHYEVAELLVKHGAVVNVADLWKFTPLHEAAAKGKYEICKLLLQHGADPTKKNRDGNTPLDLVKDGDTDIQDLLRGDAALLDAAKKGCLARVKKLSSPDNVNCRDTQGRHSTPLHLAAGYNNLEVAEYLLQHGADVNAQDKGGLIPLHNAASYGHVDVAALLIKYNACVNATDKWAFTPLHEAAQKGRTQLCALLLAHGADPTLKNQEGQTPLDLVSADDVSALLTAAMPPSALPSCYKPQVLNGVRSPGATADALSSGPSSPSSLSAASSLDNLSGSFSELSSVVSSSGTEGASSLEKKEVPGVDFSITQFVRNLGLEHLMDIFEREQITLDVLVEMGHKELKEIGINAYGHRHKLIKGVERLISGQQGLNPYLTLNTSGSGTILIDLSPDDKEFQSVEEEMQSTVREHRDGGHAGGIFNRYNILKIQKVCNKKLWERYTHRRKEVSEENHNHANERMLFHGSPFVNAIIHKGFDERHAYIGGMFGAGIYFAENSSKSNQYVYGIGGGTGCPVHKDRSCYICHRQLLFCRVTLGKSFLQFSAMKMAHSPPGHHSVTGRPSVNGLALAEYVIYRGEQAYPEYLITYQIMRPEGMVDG
Description: Inhibition of recombinant human N-terminal TEV cleavage site-fused/FLAG-poly his-tagged TNKS2 SAM-PARP domain (613 to 1166 residues) expressed in Escherichia coli assessed as reduction in auto-PARylation preincubated for 10 mins followed by biotinylated-NAD+ addition and measured after 45 mins by ELISA

[3] = molecular target: Poly [ADP-ribose] polymerase 1 (Homo sapiens, UniProt P09874)
Sequence of Poly [ADP-ribose] polymerase 1 (P09874 whole entry): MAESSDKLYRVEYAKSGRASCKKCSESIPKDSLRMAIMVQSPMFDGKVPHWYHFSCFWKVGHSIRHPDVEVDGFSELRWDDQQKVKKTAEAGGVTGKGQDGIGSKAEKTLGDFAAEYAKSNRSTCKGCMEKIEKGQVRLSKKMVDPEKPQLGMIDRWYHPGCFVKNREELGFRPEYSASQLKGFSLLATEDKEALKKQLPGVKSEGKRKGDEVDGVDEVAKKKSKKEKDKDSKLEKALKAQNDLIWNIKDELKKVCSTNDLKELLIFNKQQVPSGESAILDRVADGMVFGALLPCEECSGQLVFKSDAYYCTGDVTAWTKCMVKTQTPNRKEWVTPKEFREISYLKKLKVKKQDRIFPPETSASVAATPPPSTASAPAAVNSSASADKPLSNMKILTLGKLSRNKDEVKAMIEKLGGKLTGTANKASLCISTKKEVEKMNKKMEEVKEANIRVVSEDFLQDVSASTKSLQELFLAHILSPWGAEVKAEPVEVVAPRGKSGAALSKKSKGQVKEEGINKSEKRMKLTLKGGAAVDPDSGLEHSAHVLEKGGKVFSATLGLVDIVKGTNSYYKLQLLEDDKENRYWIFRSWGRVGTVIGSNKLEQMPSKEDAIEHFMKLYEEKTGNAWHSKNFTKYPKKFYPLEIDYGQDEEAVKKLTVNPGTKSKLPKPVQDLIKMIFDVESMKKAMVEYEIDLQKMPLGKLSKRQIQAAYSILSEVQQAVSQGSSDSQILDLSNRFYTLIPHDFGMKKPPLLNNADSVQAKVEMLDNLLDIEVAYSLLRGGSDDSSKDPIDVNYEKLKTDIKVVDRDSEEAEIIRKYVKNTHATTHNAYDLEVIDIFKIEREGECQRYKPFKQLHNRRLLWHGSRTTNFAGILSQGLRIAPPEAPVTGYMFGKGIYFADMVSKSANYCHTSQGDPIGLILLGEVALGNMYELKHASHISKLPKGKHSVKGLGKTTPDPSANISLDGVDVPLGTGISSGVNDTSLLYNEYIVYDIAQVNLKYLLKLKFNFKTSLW
Description: Inhibition of recombinant human PARP1 expressed in Escherichia coli assessed as reduction in auto-PARylation using histone as substrate measured after 45 mins in presence of biotinylated-NAD+ by ELISA

[4] = molecular target: T3, Tankyrase 1/2 (Homo sapiens, UniProt Q9H2K2+O95271)
T3 sequence (Q9H2K2 whole entry): T2 sequence (Q9H2K2 whole entry)
T3 sequence (O95271 whole entry): T1 sequence (O95271 whole entry)
Description: Inhibition of TNKS/TNKS2 (unknown origin) expressed in human DLD1 cells assessed as reduction in Wnt-signaling measured after 24 hrs by TCF-luciferase reporter gene assay

[5] = system: COLO 320DM; experiment: cells; conditions: Homo sapiens, 96 h
Description: Antiproliferative activity against human COLO320DM cells assessed as inhibition of cell growth measured after 4 days by CellTiter-Glo assay

[6] = physchem; conditions: phosphate buffer, pH 7.4
[7] = in vitro; conditions: human, liver microsomes
Description: Stability in human liver microsomes assessed as parent compound remaining at 1 uM measured after 30 mins in presence of NADPH by LC-MS/MS analysis

[8] = in vitro; conditions: mouse, liver microsomes
Description: Stability in mouse liver microsomes assessed as parent compound remaining at 1 uM measured after 30 mins in presence of NADPH by LC-MS/MS analysis

[9] = Permeability of the compound by PAMPA; format: ADME; conditions: read-out: permeability
[10] = system: COLO 320DM; experiment: Antiproliferative activity against human COLO320DM cells assessed inhibition of cell growth measured after 5 days by MTT assay; format: functional; conditions: 120 h
[11] = system: RKO; experiment: Antiproliferative activity against human RKO cells assessed inhibition of cell growth measured after 5 days by MTT assay; format: functional; conditions: 120 h
[12] = molecular target: Tankyrase 1/2 (Homo sapiens) (UniProt Q9H2K2+O95271); experiment: Inhibition of TNKS/TNKS2 in human COLO320DM cells assessed as upregulation of AXIN2 expression at 0.1 uM measured after 16 hrs by Western blot analysis relative to G007-LK; format: cell-based

SMILES | IC50 [1] | IC50 [2] | IC50 [3] | IC50 [4] | GI50 [5] | solubility at 1 h, 200 µM [6] | remaining at 0.5 h, 1 µM [7] | remaining at 0.5 h, 1 µM [8] | Papp [9] | GI50 [10] | GI50 [11] | fold change (FC) [12]
O=C1Oc2ccccc2C12CCN(c1nc3c(c(=O)[nH]1)CCCC3)CC2 | 30.2 nM | 18.3 nM | > 20000 nM | > 10000 nM | > 50000 nM | 1.17 µg/mL (≈ 3.33 µM) | 28.1% | 0.1% | – | – | – | –
O=C1N(CCO)c2ccccc2C12CCN(c1nc3c(c(=O)[nH]1)CCCC3)CC2 | 19 nM | 26 nM | > 20000 nM | 918 nM | 12700 nM | 78.7 µg/mL (≈ 200 µM) | – | – | 2.9 ×10⁻⁶ cm/s | 2670 nM | 3400 nM | 0.98
O=C1Nc2ccccc2C12CCN(c1nc3c(c(=O)[nH]1)CCCC3)CC2 | 27.6 nM | 25.1 nM | > 20000 nM | 591 nM | 11200 nM | 64.2 µg/mL (≈ 183 µM) | 84.3% | 0% | – | – | – | –
O=c1[nH]c(N2CCC3(CC2)CNc2ccccc23)nc2c1CCCC2 | 28.5 nM | 20.7 nM | > 20000 nM | 352 nM | 13100 nM | 1.6 µg/mL (≈ 4.76 µM) | 77.9% | 34.7% | – | – | – | –
O=C1N(CCO)c2cc(Cl)cc(Cl)c2C12CCN(c1nc3c(c(=O)[nH]1)CCCC3)CC2 | 9 nM | 9.5 nM | > 20000 nM | 19.8 nM | 2600 nM | 55.9 µg/mL (≈ 121 µM) | – | – | 43 ×10⁻⁶ cm/s | 450 nM | 2610 nM | 8.03
O=c1[nH]c(N2CCC3(CC2)OCc2ccccc23)nc2c1CCCC2 | 31.5 nM | 35.7 nM | > 20000 nM | 342 nM | 5800 nM | 1.07 µg/mL (≈ 3.17 µM) | 76.3% | 0% | – | – | – | –
COc1ccccc1C1CCN(c2nc3c(c(=O)[nH]2)CCCC3)CC1 | 65.4 nM | 67.6 nM | > 20000 nM | 531 nM | 4600 nM | 1 µg/mL (≈ 2.95 µM) | 62.1% | 0% | – | – | – | –
COc1ccccc1N1CCN(c2nc3c(c(=O)[nH]2)C[S+]([O-])CC3)CC1 (configuration not stated) | 6170 nM | 5340 nM | > 20000 nM | > 10000 nM | > 20000 nM | 8.8 µg/mL (≈ 23.5 µM) | – | – | – | – | – | –
COc1ccccc1N1CCN(c2nc3c(c(=O)[nH]2)CC(F)(F)CC3)CC1 | 19.4 nM | 65.5 nM | > 20000 nM | 403 nM | 15500 nM | 0.8 µg/mL (≈ 2.13 µM) | – | – | – | – | – | –
